Results taken from US9994518B2, “Alpha-7 nicotinic acetylcholine receptor modulators and uses thereof” (MERCK SHARP & DOHME CORP., priority 2014, dated 2018).
pEC50: −log10 of the molar value.

What was measured:
[1] = target: T1, α7 nAChR (rat α7/CHO cells) (Rattus norvegicus, UniProt Q05941); experiment: Evaluation of modulators of α7 nAChRs using the IonFlux HT automated patch clamp system (potentiation of EC20 ACh-evoked currents); type: cell-based; conditions: percent potentiation of ACh (EC20, approx. 60 μM) response in α7/CHO cells; 6-point dose response 0.03-10 μM; whole cell patch clamp
T1 construct: expressed in transfected cells; host or cells: CHO cells (α7/CHO)
Method: Evaluation of Modulators of α7 nAChRs Using the IonFlux^HT Automated Patch Clamp System
Acetylcholine was freshly prepared for each plate run and used at an EC20 concentration (approximately 60 μM for rat α7/CHO) to induce α7 nAChR currents on the IonFlux^HT. To prepare the ACh solution for a single plate, 6 μl of the 100 mM ACh stock was diluted into 10 ml of 0.3% DMSO/external solution
Test compounds were prepared for a 6-point dose response from 0.03-10 μM. Working stocks were prepared from serial dilutions of 10 mM DMSO stock solutions to give a final DMSO concentration of 0.3%. 80 μl of the final concentration of each compound was added to the appropriate wells in an IonFlux^HT assay plate.
2×T175 flasks of α7/CHO cells (˜60-70% confluent) were washed twice with PBS and trypsinized (2 ml) for 3.5 minutes at 37° C./5% CO2. Cells were collected in F-12K complete media, counted and the number required for the assay was calculated, for example, 2×10^6 cells in a final volume of 670 μl of external solution were required to load one zone (one quarter) of an IonFlux^HT assay plate. The correct number of cells was pelleted by centrifuge, the supernatant was discarded and the cell pellet was resuspend in external solution at the required concentration so that cells were added in a volume of 80 μl per well to the IonFlux^HT assay plate.
Calculation of the Effect of Compounds on ACh Mediated Currents in α7 nAChRs:
The effect of test compounds on EC20 ACh-evoked currents was calculated by the formula: […]
The rinse protocol was the initial step in preparation of the IonFlux^HT plate. 80 μl of MilliQ water was added to every well (except Out wells) and the IonFlux^HT assay plate was run through the water rinse protocol on the machine. At the end of the run, the water was discarded from the wells. This action was repeated twice.
Briefly, to prepare the plate for the assay aliquots of cells, compounds and internal and external solutions were added to wells of the prepared IonFlux^HT plate (80 μl/well) (solutions made to manufacturer's specifications). Automated whole cell patch-clamp recordings were made using the standard IonFlux^HT single application protocol. Vacuum was held at 6 psi/hg throughout the experiment and membrane potential was held at −80 mV for 35 sec and then at −60 mV during data acquisition. Two ACh (EC20) pulses were applied at the beginning of the assay, 90 seconds apart, to provide an ACh baseline response then cells were perfused with modulators for 89 sec before ACh (EC20) was applied for 1 s. The calculation of percent potentiation of the acetylcholine response for each well was performed by the data analysis software supplied with the IonFlux^HT.
The following compounds were tested in accordance with the above-procedure for activity and the EC50 values determined are reported: […]

T1 sequence (Q05941 23-502): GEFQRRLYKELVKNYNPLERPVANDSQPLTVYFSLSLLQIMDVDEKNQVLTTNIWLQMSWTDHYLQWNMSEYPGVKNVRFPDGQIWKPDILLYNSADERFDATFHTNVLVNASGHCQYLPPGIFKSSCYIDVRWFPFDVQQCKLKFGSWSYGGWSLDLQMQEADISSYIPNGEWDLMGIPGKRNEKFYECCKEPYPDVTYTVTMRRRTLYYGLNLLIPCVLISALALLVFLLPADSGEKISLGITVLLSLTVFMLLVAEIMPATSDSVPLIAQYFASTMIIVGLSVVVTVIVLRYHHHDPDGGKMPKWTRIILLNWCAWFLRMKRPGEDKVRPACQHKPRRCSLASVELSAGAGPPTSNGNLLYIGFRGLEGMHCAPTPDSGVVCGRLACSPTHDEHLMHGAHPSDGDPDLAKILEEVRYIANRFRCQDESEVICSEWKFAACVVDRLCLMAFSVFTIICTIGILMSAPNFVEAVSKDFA

Compound | pEC50 [1] | melting point [°C]
COc1ccc(Cl)cc1OC[C@@H]1[C@@H](c2ccc(S(N)(=O)=O)cc2)C1(C)C (racemic) [Exp. 1, ±trans 4-{3-[(5-chloro-2-methoxyphenoxy)methyl]-2,2-dimethylcyclopropyl}benzenesulfonamide] | 6.98 | 158 to 160
COc1ccc(Cl)cc1OC[C@@H]1[C@@H](c2ccc(S(N)(=O)=O)cc2)C12CCCC2 (racemic) [Exp. 2, ±trans 4-{2-[(5-chloro-2-methoxyphenoxy)methyl]spiro[2.4]hept-1-yl}benzenesulfonamide] | 6.84 | 56 to 58
Cc1ncc(OC[C@H]2[C@H](c3ccc(S(N)(=O)=O)cc3)C2(C)C)cn1 (single isomer, unassigned) [Exp. 56] | < 5.00 | –
CC1(C)[C@@H](COc2cncnc2)[C@@H]1c1ccc(S(N)(=O)=O)cc1 (single isomer, unassigned) [Exp. 57] | < 5.00 | –
N#Cc1cc(F)ccc1OC[C@@H]1C[C@@H]1c1ccc(S(N)(=O)=O)cc1 (single isomer, unassigned) [Exp. 58] | < 5.00 | –
